Source: patent US20240299496A1, “DRUG FOR TREATING FATTY LIVER AND NONALCOHOLIC STEATOHEPATITIS” (Osaka University, priority 2021, published 2024)
Where no end group is shown, it is not given here.

Tested on: NASH model mice (MC4R-KO mice fed a high-fat diet)
Test: Body weight and liver weight of NASH model mice
Assay type: in vivo, mouse
Settings: 5 mg/kg tail vein injection twice a week for four weeks, t-test
Text: Melanocortin-4 receptor knockout mice (hereinafter also referred to as “MC4R-KO mice,” genetic background: C57BL/6J) were provided by Dr. Joel K Elmquist of University of Texas, Medical Center.
Subsequently, NASH was induced in the mice by feeding a high-fat diet to the MC4R-KO mice, as detailed in the below reference. […] Later, the diet was switched from the normal diet to a high-fat diet (HFD) and the high-fat diet was fed for 20 weeks. Thereby, NASH was developed in the mice. • Itoh M, Suganami T, Nakagawa N, et al. Melanocortin 4 receptor-deficient mice as a novel mouse model of nonalcoholic steatohepatitis. Am J Pathol 2011; 179: 2454-63.
Here, CE-2 (manufactured by CLEA Japan, Inc.) was used as the normal diet, and Western Diet (manufactured by EPS EKISHIN Co., Ltd., containing 0.21% of cholesterol+41% kcal of milk fat) was used as the high-fat diet.
Experiments were carried out by dividing the mice into two groups of an HMGB1 peptide administration group (HMGB1 administration group) and a control group (normal saline; NS administration; CTRL administration group). […]
The mice were euthanized twenty weeks after initiating the high-fat diet, and arterial blood was collected from the heart of the mice. […] In all of the following statistical analyses, significance was calculated by a t-test.

Q: “MGKGDPKKPRGKMSSYAFFVQTCREEHKKKHPDASVNFSEFSKK [HMGB1 peptide]” was tested. Which “change of the body weight” value (from initiating administration until completion of breeding, vs control group) did it give?
A: Its value is “significant differences were not observed”.

Q: What about the body weight (twenty weeks after initiating high-fat diet, vs control group (normal saline)) of the same sequence?
A: Its body weight is “significant differences were not observed”.
